Assay results as given in patent US20220388992A1, “JAK INHIBITOR COMPOUND AND USE THEREOF” (priority 2019, published 2022).

Experiments:
Type in all cases: biochemical
[1] = target: T1, JAK3 (Homo sapiens, UniProt P52333); assay: JAK3 kinase inhibition, ADP-Glo luminescence assay; conditions: substrate Poly (4:1 Glu, Tyr)
T1 construct: purchased Carna 08-046
Source text: (§1) A drug screening system based on kinases JAK1, JAK2, JAK3, and TYK2 was used to detect the inhibitory ability of small molecule compounds on kinase activity. A kinase undergoes an enzymatic reaction with its substrates IRS 1, IGF1Rtide, and Poly (4:1 Glu, Tyr), consuming ATP to produce ADP, wherein the ADP-Glo reagent and luminescence method were used to detect the amount of the product to reflect the activity of the kinase. 2.1 Experimental Materials and Instruments
(§2) a) Dilute a compound solution to be tested by 5 times with 100% DMSO. […] The final concentration of DMSO is 0.5%. d) Transfer 4 μL of ADP-Glo to the 384-well reaction plate, centrifuge it at 1000 rpm/min for 1 min, and incubate it at 25° C. for 40 min. e) Transfer 8 μL of Detection solution to the 384-well reaction plate, centrifuge it at 1000 rpm/min for 1 min, and incubate it at 25° C. for 40 min. f) Use Biotek multi-function plate reader to read the RLU (Relative luminescence unit) signal. The signal intensity is used to characterize the degree of kinase activity.
(§3) IC50 (half inhibitory concentration) of the compound can be obtained using the following nonlinear fitting formula:
(§4) Y=Bottom+(Top−Bottom)/(1+10^((Log IC50−X)*HillSlope))

[2] = target: T2, TYK2 (Homo sapiens, UniProt P29597); assay: TYK2 kinase inhibition, ADP-Glo luminescence assay; conditions: substrate IRS1
T2 sequence (P29597 871-1187 limits assumed): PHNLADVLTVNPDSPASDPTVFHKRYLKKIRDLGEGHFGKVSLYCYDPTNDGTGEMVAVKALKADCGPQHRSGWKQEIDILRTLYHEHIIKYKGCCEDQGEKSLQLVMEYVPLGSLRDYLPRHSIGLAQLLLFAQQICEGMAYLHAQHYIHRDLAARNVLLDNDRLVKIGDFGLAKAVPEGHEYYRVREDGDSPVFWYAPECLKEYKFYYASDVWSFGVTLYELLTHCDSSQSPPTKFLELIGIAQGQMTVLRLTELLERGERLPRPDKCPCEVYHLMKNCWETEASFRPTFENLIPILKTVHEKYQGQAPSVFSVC
Source text: as §1, §2, §3, §4

[3] = target: JAK1 (Homo sapiens, UniProt P23458); assay: JAK1 kinase inhibition, ADP-Glo luminescence assay; parameters: purchased Carna 08-144; conditions: substrate IRS1
JAK1, sequence (P23458 850-1154 limits assumed): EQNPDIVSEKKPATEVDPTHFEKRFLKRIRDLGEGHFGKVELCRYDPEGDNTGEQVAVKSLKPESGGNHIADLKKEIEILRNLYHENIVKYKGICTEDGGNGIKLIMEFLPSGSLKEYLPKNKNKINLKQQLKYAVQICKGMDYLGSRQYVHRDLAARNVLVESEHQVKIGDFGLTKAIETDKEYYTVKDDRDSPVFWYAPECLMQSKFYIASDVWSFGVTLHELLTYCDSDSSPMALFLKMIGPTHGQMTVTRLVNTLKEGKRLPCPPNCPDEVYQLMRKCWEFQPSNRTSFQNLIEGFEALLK
Source text: as §1, §2, §3, §4

[4] = target: JAK2 (Homo sapiens, UniProt O60674); assay: JAK2 kinase inhibition, ADP-Glo luminescence assay; parameters: purchased Carna 08-045; conditions: substrate IGF1Rtide
JAK2, sequence (O60674 826-1132 limits assumed): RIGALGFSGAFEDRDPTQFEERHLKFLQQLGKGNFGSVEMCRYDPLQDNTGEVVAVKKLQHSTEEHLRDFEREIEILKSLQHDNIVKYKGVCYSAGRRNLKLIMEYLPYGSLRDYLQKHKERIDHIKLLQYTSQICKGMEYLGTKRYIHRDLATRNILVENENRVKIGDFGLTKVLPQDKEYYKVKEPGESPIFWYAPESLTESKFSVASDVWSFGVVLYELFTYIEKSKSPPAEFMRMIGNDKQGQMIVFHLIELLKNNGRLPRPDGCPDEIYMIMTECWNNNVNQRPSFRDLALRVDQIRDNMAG
Source text: as §1, §2, §3, §4

T1 sequence (P52333 795-1124 limits assumed): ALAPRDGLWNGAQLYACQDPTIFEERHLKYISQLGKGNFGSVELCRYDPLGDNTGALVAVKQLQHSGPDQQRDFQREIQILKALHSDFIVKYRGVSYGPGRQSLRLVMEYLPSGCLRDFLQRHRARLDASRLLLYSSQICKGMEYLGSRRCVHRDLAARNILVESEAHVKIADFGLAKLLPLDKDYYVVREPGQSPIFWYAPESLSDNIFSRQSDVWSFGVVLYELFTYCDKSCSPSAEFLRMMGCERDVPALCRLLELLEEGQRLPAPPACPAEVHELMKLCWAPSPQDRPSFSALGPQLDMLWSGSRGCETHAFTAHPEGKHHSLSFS

| SMILES | IC50 [1] [nM] | IC50 [2] [nM] | IC50 [3] [nM] | IC50 [4] [nM] |
| --- | --- | --- | --- | --- |
| CCc1cc(O)c(F)cc1-c1ccc2c(-c3nc(CNC(=O)OCCC#N)c[nH]3)n[nH]c2c1 [Ex-27, 2-cyanoethyl ((2-(6-(2-ethyl-5-fluoro-4-hydroxyphenyl)-1H-indazol-3-yl)-1H-imidazol-4-yl)methyl) carbamate] | 4.4 | 9.2 | 0.92 | 6.3 |
| CCc1cc(O)c(F)cc1-c1ccc2c(-c3nc(CNC4CCC4)c[nH]3)n[nH]c2c1 [Ex-31, 4-(3-(4-((cyclobutylamino)methyl)-1H-imidazol-2-yl)-1H-indazol-6-yl)-5-ethyl-2-fluorophenol] | 3.7 | 17.3 | 0.1 | 1.6 |
| CCc1cc(O)c(F)cc1-c1ccc2c(-c3nc(CN4CC5CCC4CC5)c[nH]3)n[nH]c2c1 [Ex-30, 4-(3-(4-((2-azabicyclo[2.2.2]octan-2-yl)methyl)-1H-imidazol-2-yl)-1H-indazol-6-yl)-5-ethyl-2-fluorophenol] | 4.5 | 30 | 0.52 | 1.8 |
| CCc1cc(O)c(F)cc1-c1ccc2c(-c3nc(CN4CCC(O)CC4)c[nH]3)n[nH]c2c1 [Ex-9, 1-((2-(6-(2-ethyl-5-fluoro-4-hydroxyphenyl)-1H-indazol-3-yl)-1H-imidazol-4-yl)methyl)piperidin-4-ol] | 1.3 | 19.8 | 1.3 | 1.5 |
| CCc1cc(O)c(F)cc1-c1ccc2c(-c3nc(CNc4ccccn4)c[nH]3)n[nH]c2c1 [Ex-33, 5-ethyl-2-fluoro-4-(3-(4-((pyridin-2-ylamino)methyl)-1H-imidazol-2-yl)-1H-indazol-6-yl)phenol] | 1.7 | 13.3 | 0.58 | 1.4 |
| CCc1cc(O)c(F)cc1-c1ccc2c(-c3nc(CN4CCC(C#N)CC4)c[nH]3)n[nH]c2c1 [Ex-11, 1-((2-(6-(2-ethyl-5-fluoro-4-hydroxyphenyl)-1H-indazol-3-yl)-1H-imidazol-4-yl)methyl)piperidine-4-nitrile] | 2.5 | 18.4 | 0.31 | 0.85 |
| CCc1cc(O)c(F)cc1-c1ccc2c(-c3nc(CN(C)C(=O)N4CC[C@@H](O)C4)c[nH]3)n[nH]c2c1 [Ex-21, (R)—N-((2-(6-(2-ethyl-5-fluoro-4-hydroxyphenyl)-1H-indazol-3-yl)-1H-imidazol-4-yl)methyl)-3-hydroxy-N-methylpyrrolidine-1-carboxamide] | 0.64 | 6.9 | 0.21 | 0.72 |
| CCc1cc(O)c(F)cc1-c1ccc2c(-c3nc(CNCC4CC4)c[nH]3)n[nH]c2c1 [Ex-17, 4-(3-(4-(((cyclopropylmethyl)amino)methyl)-1H-imidazol-2-yl)-1H-indazol-6-yl)-5-ethyl-2-fluoro phenol] | 2.9 | 6.5 | 0.36 | 1.2 |
| CCc1cc(O)c(F)cc1-c1ccc2c(-c3nc(CNC(=O)C4CCN(C)C4)c[nH]3)n[nH]c2c1 (centres unmarked) [Ex-29, N-((2-(6-(2-ethyl-5-fluoro-4-hydroxyphenyl)-1H-indazol-3-yl)-1H-imidazol-4-yl)methyl)-1-methylpyrrolidine-3-carboxamide] | 9.3 | 16.8 | 1.1 | 13.3 |
| CCc1cc(O)c(F)cc1-c1ccc2c(-c3nc(CN4CCOCC4)c[nH]3)n[nH]c2c1 [Ex-13, 5-ethyl-2-fluoro-4-(3-(4-(morpholinomethyl)-1H-imidazol-2-yl)-1H-indazol-6-yl)phenol] | 1.7 | 11.3 | 0.48 | 0.84 |
| CCc1cc(O)c(F)cc1-c1ccc2c(-c3nc(CNC(=O)c4cnn(C)c4)c[nH]3)n[nH]c2c1 [Ex-34, N-((2-(6-(2-ethyl-5-fluoro-4-hydroxyphenyl)-1H-indazol-3-yl)-1H-imidazol-4-yl)methyl)-1-methyl-1H-pyrazole-4-carboxamide] | 0.5 | 1.1 | 0.15 | 1 |
| CCc1cc(O)c(F)cc1-c1ccc2c(-c3nc(CNC(=O)N4CCOCC4)c[nH]3)n[nH]c2c1 [Ex-36, N-((2-(6-(2-ethyl-5-fluoro-4-hydroxyphenyl)-1H-indazol-3-yl)-1H-imidazol-4-yl)methyl)morpholine-4-carboxamide] | 0.48 | 0.83 | 0.11 | 0.55 |
| CCc1cc(O)c(F)cc1-c1ccc2c(-c3nc(CN(C)C(=O)C4CC4)c[nH]3)n[nH]c2c1 [Ex-10, N-((2-(6-(2-ethyl-5-fluoro-4-hydroxyphenyl)-1H-indazol-3-yl)-1H-imidazol-4-yl)methyl)-N-methylcyclopropanecarboxamide] | 4.5 | 27 | 1.2 | 5.2 |
| CCc1cc(O)c(F)cc1-c1ccc2c(-c3nc(CNc4cccnc4)c[nH]3)n[nH]c2c1 [Ex-14, 5-ethyl-2-fluoro-4-(3-(4-((pyridin-3-ylamino)methyl)-1H-imidazol-2-yl)-1H-indazol-6-yl)phenol] | 1.6 | 9.6 | 0.47 | 1.2 |
| CCc1cc(O)c(F)cc1-c1ccc2c(-c3nc(CN4CCC(C#N)C4)c[nH]3)n[nH]c2c1 (centres unmarked) [Ex-12, 1-((2-(6-(2-ethyl-5-fluoro-4-hydroxyphenyl)-1H-indazol-3-yl)-1H-imidazol-4-yl)methyl)pyrrolidine-3-carbonitrile] | 0.67 | 6.1 | 0.1 | 0.74 |
| CCc1cc(O)c(F)cc1-c1ccc2c(-c3nc(CNC(=O)N4CC[C@H](O)C4)c[nH]3)n[nH]c2c1 [Ex-23, (S)—N-((2-(6-(2-ethyl-5-fluoro-4-hydroxyphenyl)-1H-indazol-3-yl)-1H-imidazol-4-yl)methyl)-3-hydroxypyrrolidine-1-carboxamide] | 0.49 | 0.96 | 0.15 | 0.68 |

More lines, now with the values ahead:

| IC50 [1] [nM] | IC50 [2] [nM] | IC50 [3] [nM] | IC50 [4] [nM] | SMILES |
| --- | --- | --- | --- | --- |
| 1.41 | 32.2 | 1.96 | 1.35 | CCc1cc(O)c(F)cc1-c1ccc2c(-c3nc(CNC(=O)c4cnc(N5CCCCC5)cn4)c[nH]3)n[nH]c2c1 [MDI-3, N-((2-(6-(2-ethyl-5-fluoro-4-hydroxyphenyl)-1H-indazol-3-yl)-1H-imidazol-4-yl)methyl)-5-(piperidin-1-yl)pyrazine-2-carboxamide] |
| 2.1 | 11 | 0.1 | 1.2 | CCc1cc(O)c(F)cc1-c1ccc2c(-c3nc(CN4CCN(CC)CC4)c[nH]3)n[nH]c2c1 [Ex-38, 5-ethyl-4-(3-(4-((4-ethylpiperazin-1-yl)methyl)-1H-imidazol-2-yl)-1H-indazol-6-yl)-2-fluorophenol] |
| 0.812 | 12.9 | 0.359 | 0.42 | CCc1cc(O)c(F)cc1-c1ccc2c(-c3nc(CNC(=O)C4CC4)c[nH]3)n[nH]c2c1 [MDI-302, N-((2-(6-(2-ethyl-5-fluoro-4-hydroxyphenyl)-1H-indazol-3-yl)-1H-imidazol-4-yl)methyl)cyclopropanecarboxamide] |
| 0.6 | 9.07 | 0.104 | 0.428 | CCc1cc(O)c(F)cc1-c1ccc2c(-c3nc(CN4CC[C@H](O)C4)c[nH]3)n[nH]c2c1 [MDI-306, (S)-1-((2-(6-(2-ethyl-5-fluoro-4-hydroxyphenyl)-1H-indazol-3-yl)-1H-imidazol-4-yl)methyl)pyrrolidin-3-ol] |
| 1.13 | 6.82 | 0.317 | 0.466 | CCC(=O)NCc1c[nH]c(-c2n[nH]c3cc(-c4cc(F)c(O)cc4CC)ccc23)n1 [MDI-301, N-((2-(6-(2-ethyl-5-fluoro-4-hydroxyphenyl)-1H-indazol-3-yl)-1H-imidazol-4-yl)methyl)propionamide] |
| 2.2 | 63.8 | 3.18 | 1.49 | CCc1cc(O)c(F)cc1-c1ccc2c(-c3nc(CNC(=O)c4cnc(N5CCOCC5)cn4)c[nH]3)n[nH]c2c1 [MDI-305, N-((2-(6-(2-ethyl-5-fluoro-4-hydroxyphenyl)-1H-indazol-3-yl)-1H-imidazol-4-yl)methyl)-5-morpholinopyrazine-2-carboxamide] |
| 0.912 | 8.26 | 0.172 | 1.32 | CCc1cc(O)c(F)cc1-c1ccc2c(-c3nc(CNS(C)(=O)=O)c[nH]3)n[nH]c2c1 [MDI-304, N-((2-(6-(2-ethyl-5-fluoro-4-hydroxyphenyl)-1H-indazol-3-yl)-1H-imidazol-4-yl)methyl)methanesulfonamide] |
